pIC50: −log10 of the molar value.
Tests used:
[1] = molecular target: SIRT2 recombinant protein (Homo sapiens (Human), UniProt Q8IXJ6); assay: In vitro activity screening of SIRT2 inhibitors (fluorogenic Ac-Gln-Pro-Lys-[Lys-(Ac)]-AMC peptide deacetylation assay); type: biochemical; settings: recombinant SIRT2 1.0 μg, 500 μM NAD+, 50 μM substrate peptide, 37° C. 2 hours
Source text: In vitro activity screening of SIRT2 inhibitors:
The full-length expression sequence ORF of the human SIRT2 gene is 1170 bp (Accession No.: NM_012237), and the molecular mass of the expressed SIRT2 protein is 43 KDa. The SIRT2 recombinant protein is expressed and purified according to the following steps: the SIRT2 gene was cloned into the expression vector pET-15b (primers were shown as follows: forward: 5 ? -[…]-3 ? (SEQ ID NO. 1); backward: 5 ? -[…]-3 ? (SEQ ID NO. 2)), and the expressed SIRT2 protein contained His6-tag at the N-terminus for purification. The plasmid was transformed into E. coli […], and expressed for 6 h at 18° C. with 1 mM IPTG induction. The induced E. coli cells were collected by centrifugation and frozen at −20° C. Bacterial pellet was re-suspended in 15 mL of cell lysis buffer (50 mM Tris-HCl pH 8.0, 300 mM NaCl), and the bacterial sample was disrupted by sonication for 10 min, and then centrifuged (12000×g, 20 min) at 4° C. to remove the precipitates.
The supernatant was purified by Ni^2+ NTA-agarose matrix column (Qiagen). In the purification process, the unbound proteins were first washed away with the loading buffer (50 mM Tris-HCl pH 8.0, 300 mM NaCl), subsequently, the non-specifically bound proteins were washed away by gradually increasing the concentration of imidazole (0-200 mM), and finally the purified recombinant SIRT2 protein was obtained. Imidazole was removed using a PD-10 column and the concentration of purified SIRT2 protein was determined by the Bradford method. The recombinant SIRT2 protein was stored at −20° C. in a preservation buffer (50 mM Tris-HCl, pH 8.0, 265 mM NaCl, 0.2 mM DTT, and 10% glycerol).
The SIRT2 enzyme activity assay is established based on the published studies. Firstly, peptide segment Ac-Gln-Pro-Lys-[Lys-(Ac)]-AMC, the substrate of SIRT2, was synthesized to serve as a substrate in the enzyme activity assay. The attached fluorescent label was AMC (7-Amino-4-methylcoumarin). […] The reaction was carried out at 37° C. for 2 hours. […] Afterwards, 60 μL of sample treating solution (50 mM Tris-HCl, pH 8.0, 100 mM NaCl, Trypsin and 4 mM nicotinamide) was added to the reaction solution and mixed, and placed at 37° C. for 20 min. Absorption intensity was measured by the enzyme-labeled instrument configured as an excitation light of 355 nm and an absorption light of 460 nm.

[2] = test system: neuroblastoma cell SH-SY5Y; assay: Cytotoxicity assay for neuroblastoma cell SH-SY5Y (AlamarBlue); type: cell-based; settings: 48 hours incubation
Method: (§1) Cytotoxicity assay of compounds for neuroblastoma cell SH-SY5Y:
(§2) This testing example investigates the cytotoxicity of compounds against neuroblastoma cell SH-SY5Y, in order to determine the dose for the Parkinson ? s cell model protection assay in the next step. For the cytotoxicity assay, the specific test steps are as follows: the cultured neuroblastoma cell SH-SY5Y was grown in a 96-well cell culture plate with approximately 6000 cells per well. After overnight incubation, the culture medium was exchanged for a new one, and each well was added with different concentrations of Compounds 1-18 ([…], 10, 20, 50, 100, 200 μM), and different control samples were arranged. The cells were continued to be incubated at 37° C. for 48 hours. Each well was added with 10 μL of the dye AlamarBlue® (Invitrogen), and the cells were continued to be incubated at 37° C. for approximately 2 hours and then a color change of the staining solution could be observed; the change of absorption values was obtained on the enzyme-labeled instrument (Ex: 530 nm; Em: 590 nm). In the assay, there were 2 parallel tests for each compound with each concentration. The results were processed with software GraphPad Prism to calculate the cytotoxicity CC50 of each compound. The results are shown in Table 2 (in which Taxol is the positive control group).

[3] = test system: SH-SY5Y cells damaged by neurotoxicant MPP+; assay: Protective activity on Parkinson's disease cell model (MPP+ treated SH-SY5Y, cell viability); type: cell-based; settings: compound 10 μM, MPP+ 5 mM, 48 h; FIG. 1
Method: Screening for compounds with protective activity on Parkinson ? s disease cell model:
For the screening test for protective effects on the Parkinson ? s disease cell model, the commonly recognized neurotoxicant MPP^+ (5 mM) is used on the neuroblastoma cell SH-SY5Y to construct the Parkinson ? s disease cell model. This neurotoxicant acts on the SH-SY5Y cell, induces abnormal accumulation of α-synuclein in the cells and causes Parkinson ? s disease-like neurotoxicity. The specific test method is as follows: approximately 20000 SH-SY5Y cells were grown in a 96-well cell plate and cultured overnight. […] The cell viability of the Parkinson ? s disease cell model was determined to assess the protective effects of the compounds on the Parkinson ? s cell model. The test data were analyzed by using GraphPad Prism.

[4] = Cytotoxicity assay for neuroblastoma cell SH-SY5Y (AlamarBlue); type: cell-based; settings: human, SH-SY5Y neuroblastoma cells, 48 hours incubation
Method: as §1, §2

SIRT2 recombinant protein, sequence (Q8IXJ6 whole entry): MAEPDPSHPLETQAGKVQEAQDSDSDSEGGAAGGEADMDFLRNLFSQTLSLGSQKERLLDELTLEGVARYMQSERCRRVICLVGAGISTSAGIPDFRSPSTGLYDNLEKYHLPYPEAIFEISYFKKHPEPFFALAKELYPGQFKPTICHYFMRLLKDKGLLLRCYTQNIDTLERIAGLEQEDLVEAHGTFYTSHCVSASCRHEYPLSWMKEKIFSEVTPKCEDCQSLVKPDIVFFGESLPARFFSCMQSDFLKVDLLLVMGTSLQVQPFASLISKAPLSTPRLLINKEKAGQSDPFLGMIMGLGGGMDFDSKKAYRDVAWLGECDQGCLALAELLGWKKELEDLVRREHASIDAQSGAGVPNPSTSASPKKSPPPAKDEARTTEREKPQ

Compound | pIC50 [1] | CC50 [2] [μmol[…]L^−1] | protective effect against SH-SY5Y cell damage by MPP+ (cell viability) [3] | CC50 at 48 h [4] [nM]
O=C(Nc1ccnc(S(=O)(=O)Nc2ccc(Cl)c(Br)c2)c1)c1cccc2ccc(=O)oc12 [Compound 14, N-(2-(N-(3-bromo-4-chlorophenyl)aminosulfonyl)-pyridin-4-yl)-2-oxo-2H-chromene-8-amide] | 6.71 | >20 | more obvious protective effects | –
COc1ccc(NS(=O)(=O)c2cc(NC(=O)c3cccc4ccc(=O)oc34)ccn2)cc1 [Compound 12, N-(2-(N-(4-methoxylphenyl)aminosulfonyl)-pyridin-4-yl)-2-oxo-2H-chromene-8-amide] | 5.63 | >20 | – | –
N#Cc1ccccc1NS(=O)(=O)c1cc(NC(=O)c2cccc3ccc(=O)oc23)ccn1 [Compound 6, N-(2-(N-(2-cyanophenyl)aminosulfonyl)-pyridin-4-yl)-2-oxo-2H-chromene-8-amide] | 5.77 | >20 | – | –
O=C(Nc1ccnc(S(=O)(=O)Nc2ccccc2Cl)c1)c1cccc2ccc(=O)oc12 [Compound 3, N-(2-(N-(2-chlorophenyl)aminosulfonyl)-pyridin-4-yl)-2-oxo-2H-chromene-8-amide] | 5.91 | >20 | – | –
O=C(Nc1ccnc(S(=O)(=O)Nc2ccc(O)cc2)c1)c1cccc2ccc(=O)oc12 [Compound 11, N-(2-(N-(4-hydroxyphenyl)aminosulfonyl)-pyridin-4-yl)-2-oxo-2H-chromene-8-amide] | 6.05 | >20 | – | –
O=C(Nc1ccnc(S(=O)(=O)Nc2cccc3ccc(Br)cc23)c1)c1cccc2ccc(=O)oc12 [Compound 15, N-(2-(N-(7-bromonaphth-1-yl)aminosulfonyl)-pyridin-4-yl)-2-oxo-2H-chromene-8-amide] | 6.81 | >20 | more obvious protective effects | –
O=C(Nc1ccnc(S(=O)(=O)Nc2ccc(F)c(F)c2)c1)c1cccc2ccc(=O)oc12 [Compound 13, N-(2-(N-(3,4-difluorophenyl)aminosulfonyl)-pyridin-4-yl)-2-oxo-2H-chromene-8-amide] | 7.10 | >20 | more obvious protective effects | –
CC(=O)O[C@H]1C(=O)[C@@]2(C)[C@H]([C@H](OC(=O)c3ccccc3)[C@]3(O)C[C@H](OC(=O)[C@H](O)[C@@H](NC(=O)c4ccccc4)c4ccccc4)C(C)=C1C3(C)C)[C@]1(OC(C)=O)CO[C@@H]1C[C@@H]2O [Taxol, reference compound] | – | – | – | 21
O=C(Nc1ccnc(S(=O)(=O)Nc2ccc(Cl)cc2)c1)c1cccc2ccc(=O)oc12 [Compound 1, N-(2-(N-(4-chlorophenyl)aminosulfonyl)-pyridin-4-yl)-2-oxo-2H-chromene-8-amide] | 7.07 | >20 | more obvious protective effects | –

Further compounds by rising pIC50 [1], results first:

pIC50 [1] | Compound | CC50 [2] [μmol[…]L^−1] | protective effect against SH-SY5Y cell damage by MPP+ (cell viability) [3] | CC50 at 48 h [4] [nM]
6.05 | CS(=O)(=O)c1ccc(NS(=O)(=O)c2cc(NC(=O)c3cccc4ccc(=O)oc34)ccn2)cc1 [Compound 8, N-(2-(N-(4-methylsulfonylphenyl)aminosulfonyl)-pyridin-4-yl)-2-oxo-2H-chromene-8-amide] | >20 | – | –
6.06 | O=C(Nc1ccnc(S(=O)(=O)Nc2cccc3ncccc23)c1)c1cccc2ccc(=O)oc12 [Compound 17, N-(2-(N-(quinoline-5-yl)aminosulfonyl)-pyridin-4-yl)-2-oxo-2H-chromene-8-amide] | >20 | – | –
6.19 | O=C(Nc1ccnc(S(=O)(=O)Nc2ccc(-c3ccccc3)cc2)c1)c1cccc2ccc(=O)oc12 [Compound 10, N-(2-(N-(4-phenylphenyl)aminosulfonyl)-pyridin-4-yl)-2-oxo-2H-chromene-8-amide] | >20 | – | –
6.44 | O=C(Nc1ccnc(S(=O)(=O)Nc2cccc(Cl)c2)c1)c1cccc2ccc(=O)oc12 [Compound 2, N-(2-(N-(3-chlorophenyl)aminosulfonyl)-pyridin-4-yl)-2-oxo-2H-chromene-8-amide] | >20 | – | –
6.45 | Cc1ccc(NS(=O)(=O)c2cc(NC(=O)c3cccc4ccc(=O)oc34)ccn2)cc1 [Compound 4, N-(2-(N-(4-methylphenyl)aminosulfonyl)-pyridin-4-yl)-2-oxo-2H-chromene-8-amide] | >20 | – | –
6.74 | O=C(Nc1ccnc(S(=O)(=O)Nc2cccc([N+](=O)[O-])c2)c1)c1cccc2ccc(=O)oc12 [Compound 5, N-(2-(N-(3-nitrophenyl)aminosulfonyl)-pyridin-4-yl)-2-oxo-2H-chromene-8-amide] | >20 | – | –
6.92 | O=C(Nc1ccnc(S(=O)(=O)Nc2ccc(F)cc2)c1)c1cccc2ccc(=O)oc12 [Compound 7, N-(2-(N-(4-fluorophenyl)aminosulfonyl)-pyridin-4-yl)-2-oxo-2H-chromene-8-amide] | >20 | – | –
7.05 | O=C(Nc1ccnc(S(=O)(=O)Nc2ccc(C(F)(F)F)cc2)c1)c1cccc2ccc(=O)oc12 [Compound 9, N-(2-(N-(4-trifluoromethylphenyl)aminosulfonyl)-pyridin-4-yl)-2-oxo-2H-chromene-8-amide] | >20 | – | –
7.07 | O=C(Nc1ccnc(S(=O)(=O)Nc2cc(Cl)cc3ccccc23)c1)c1cccc2ccc(=O)oc12 [Compound 16, N-(2-(N-(3-chloronaphth-1-yl)aminosulfonyl)-pyridin-4-yl)-2-oxo-2H-chromene-8-amide] | >20 | – | –
